For orientation: IC50 means the point on the concentration scale where inhibition reaches its midpoint.

Here are results for ten compounds from ChEMBL document CHEMBL5729007, “Triaryl compounds for treatment of PD-L1 diseases” (2022).

The target in the experiment is Programmed cell death 1 ligand 1 (Homo sapiens, UniProt Q9NZQ7). The experiment can be described thus: Enzyme-Linked Immunosorbent Assay—ELISA: 96 Well plates were coated with […] of human PD-L1 (obtained from R&D) in PBS overnight at 4° C. The wells were then blocked with 2% BSA in PBS (W/V) with 0.05% TWEEN-20 for 1 hour at 37° C. The plates were washed 3 times with PBS/0.05% TWEEN-20 and the compounds were serial diluted (1:5) in dilution medium and added to the ELISA plates. Human PD-1 and biotin 0.31 μg/mL (ACRO Biosystems) were added and incubated for 1 hour at 37° C. then washed 3 times with PBS/0.05% TWEEN-20. A second block was performed with 2% BSA in PBS (W/V)/0.05% TWEEN-20 for 10 min at 37° C. and the plates were washed 3 times with PBS/0.05% TWEEN-20. Streptavidin-HRP was added for 1 hour at 37° C. then the plates were washed 3 times with PBS/0.05% TWEEN-20. TMB substrate was added and reacted for 20 min at 37° C. A stop solution (2 N aqueous H2SO4) was added. The absorbance was read at 450 nm using a micro-plate spectrophotometer. (In an ELISA, binding on a coated surface is turned into a signal by an enzyme label.)
Programmed cell death 1 ligand 1, sequence (Q9NZQ7 whole entry): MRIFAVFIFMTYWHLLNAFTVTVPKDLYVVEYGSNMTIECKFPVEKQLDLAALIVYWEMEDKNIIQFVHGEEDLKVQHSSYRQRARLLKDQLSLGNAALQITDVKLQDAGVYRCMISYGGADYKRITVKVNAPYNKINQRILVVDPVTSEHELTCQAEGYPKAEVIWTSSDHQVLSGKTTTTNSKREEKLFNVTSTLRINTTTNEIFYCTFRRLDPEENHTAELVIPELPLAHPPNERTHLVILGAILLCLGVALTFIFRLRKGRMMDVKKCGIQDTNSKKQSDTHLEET

On to `COc1cc(-c2cccc(-c3cccc(Nc4nccc5nccnc45)c3C)c2Cl)cc(F)c1CN[C@@H]1CCOC[C@@H]1O`, for which the half-maximal inhibitory concentration (IC50) is less than 10 nM.

Regarding `COc1cc(-c2cccc(-c3cccc(NC(=O)c4cn(C)c(=O)n(C)c4=O)c3Cl)c2Cl)cc(F)c1CN[C@@H]1CCOC[C@@H]1O`, the IC50 was less than 10 nM. In turn, `COc1cc(-c2cccc(-c3cccc(NC(=O)c4cn(C)c(=O)n(C)c4=O)c3C)c2C)cc(F)c1CN` came in with an IC50 of less than 10 nM.

`COc1cc(-c2cccc(-c3cccc(NC(=O)c4cnc(C(N)=O)cn4)c3C)c2C)cc(F)c1CN` came in with an IC50 of less than 10 nM. Take `COc1cc(-c2cccc(-c3cccc(NC(=O)c4cn(C)c(=O)n(C)c4=O)c3Cl)c2Cl)cc(F)c1CN[C@@H]1CNC(=O)C1`: the IC50 is less than 10 nM.

Consider `COc1cc(-c2cccc(-c3cccc(NC(=O)c4cn(C)c(=O)n(C)c4=O)c3C)c2C)cc(F)c1CN(C)CCO`, for which the half-inhibitory concentration (IC50) was less than 10 nM. Turning to `COc1cc(-c2cccc(-c3cccc(NC(=O)c4ccc(C(N)=O)cn4)c3C)c2C)cc(F)c1CN`, the IC50 is less than 10 nM.

`COc1cc(-c2cccc(-c3cccc(NC(=O)c4cncn(C)c4=O)c3C)c2Cl)cc(F)c1CN[C@@H]1CNC(=O)C1` had a concentration for half-maximal inhibition (IC50) of less than 10 nM.

As for `COc1cc(-c2cccc(-c3cccc(NC(=O)c4ccc(OCC(=O)O)cn4)c3C)c2C)cc(F)c1CN`, the 50% inhibitory concentration (IC50) is less than 10 nM.

`COc1cc(-c2cccc(-c3cccc(NC(=O)c4cn(C)c(=O)n(C)c4=O)c3F)c2Cl)cc(F)c1CNCC1CCC(=O)N1` (stereo not given) gave a half-inhibitory concentration (IC50) of less than 10 nM.
